Series [1] relates to MC28 cells.
Series [2] concerns MC28 cells. This is another data set of the same source.
In series [3] the test system is MC28 cells. The class given is cell-based, rat.

On to `N=C(N)NCCC[C@H](NC(=O)CN)C(=O)N[C@@H](CCCCN)C(=O)N[C@@H](CCCCN)C(=O)N[C@@H](CCCNC(=N)N)C(=O)N[C@@H](CCCNC(=N)N)C(=O)N[C@@H](CCC(N)=O)C(=O)N[C@@H](CCCNC(=N)N)C(=O)N[C@@H](CCCNC(=N)N)C(=O)N[C@@H](CCCNC(=N)N)C(=O)NCC(=O)N[C@@H](Cc1ccc(O)cc1)C(=O)N[C@@H](CCCCN)C(=O)N[C@@H](CSC1CC(=O)N(CCC(=O)Nc2ccc(-c3c4nc(c(-c5ccccc5)c5ccc([nH]5)c(-c5ccccc5)c5nc(c(-c6ccccc6)c6ccc3[nH]6)C=C5)C=C4)cc2)C1=O)C(N)=O` (some centres unmarked) [Compound 20], for which the “LD50 PDT” value in series [1] (18 h) was found to be 94 ± 6 nM. Also, the LD50 dark result in series [1] (24 h) is recorded as “≫1 μM”. Further, in series [2], the cellular uptake result is recorded as “efficient uptake” and the subcellular localisation entry is “Endolysosomal localisation”.
On to saporin, for which, in series [3], the “reduction in viability using saporin alone” value is “approximately 10%”.
